Data taken from ChEMBL document CHEMBL6083197, “Design, synthesis, inhibitory activity, and molecular simulations study for d-glucose-conjugated thioureas containing pyrimidine ring as multitarget inhibitors against α-amylase, α-glucosidase, DDP-4, and PTP1B in Type 2 diabetes mellitus” (RSC Med Chem, 2024).
Values after ≈ are worked out from the molar mass of the structure shown.

Assays:
[1] = Inhibition of alpha-amylase (unknown origin) using starch as substrate preincubated for 10 mins followed by substrate addition and measured after 10 mins by DNSA reagent based spectrophotometric assay; set-up: species or system Homo sapiens
[2] = Inhibition of alpha-amylase (unknown origin) using starch as substrate incubated for 10 mins by DNS reagent based spectrometric assay; set-up: species or system Homo sapiens
[3] = Inhibition of alpha-glucosidase (unknown origin) using p-nitrophenyl-glucopyranoside as substrate incubated for 10 mins; set-up: species or system Homo sapiens
[4] = molecular target: T1, Dipeptidyl peptidase 4 (Homo sapiens, UniProt P27487); experiment: Inhibition of DPP-4 (unknown origin)
[5] = molecular target: T1, Dipeptidyl peptidase 4; experiment: Inhibition of recombinant human DPP-4 using Gly-Pro-AMC as substrate by fluorometric assay
[6] = Inhibition of alpha-glucosidase (unknown origin) using p-nitrophenyl-alpha-D-glucoside as substrate preincubated for 5 mins followed by substrate addition and measured after 20 mins by microplate reader assay
[7] = Inhibition of alpha-amylase (unknown origin) using starch as substrate preincubated for 10 mins followed by substrate addition and measured after 10 mins by 3, 5-dinitrosalicylic acid reagent based microplate reader assay

T1 sequence (P27487 whole entry): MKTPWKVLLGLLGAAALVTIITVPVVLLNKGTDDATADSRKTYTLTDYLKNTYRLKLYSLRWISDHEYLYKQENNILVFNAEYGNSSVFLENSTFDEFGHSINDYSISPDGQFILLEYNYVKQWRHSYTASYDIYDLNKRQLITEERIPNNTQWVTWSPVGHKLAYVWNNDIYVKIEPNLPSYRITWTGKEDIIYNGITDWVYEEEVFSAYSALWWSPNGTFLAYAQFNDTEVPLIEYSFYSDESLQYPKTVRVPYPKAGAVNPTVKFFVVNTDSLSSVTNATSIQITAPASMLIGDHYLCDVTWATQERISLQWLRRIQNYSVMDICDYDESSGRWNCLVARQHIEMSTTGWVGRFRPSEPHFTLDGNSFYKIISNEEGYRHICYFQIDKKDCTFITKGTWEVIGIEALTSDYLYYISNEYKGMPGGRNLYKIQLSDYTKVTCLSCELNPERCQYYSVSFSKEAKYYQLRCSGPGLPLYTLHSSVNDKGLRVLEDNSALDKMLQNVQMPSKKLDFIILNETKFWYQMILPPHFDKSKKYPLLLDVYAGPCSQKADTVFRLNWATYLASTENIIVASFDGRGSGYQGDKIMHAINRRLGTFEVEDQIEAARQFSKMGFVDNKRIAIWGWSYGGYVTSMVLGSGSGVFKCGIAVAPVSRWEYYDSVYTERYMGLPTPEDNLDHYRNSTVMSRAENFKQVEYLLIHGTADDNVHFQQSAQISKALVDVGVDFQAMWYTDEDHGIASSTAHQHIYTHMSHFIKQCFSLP

## CCOC(=O)C1=C(C)NC(=O)NC1c1ccc(Nc2cccc3c2C(=O)c2ccccc2C3=O)cc1 (configuration not stated)
[1]
  IC50: 24.23 µg/mL (≈ 50.3 µM)

## CN(C)/C(N)=N/c1nc(-c2ccccc2)cc(-c2c[nH]c3ccccc23)n1
[2]
  IC50: 49.5 µg/mL (≈ 139 µM)
[3]
  IC50: 55.98 µg/mL (≈ 157 µM)

## Nc1nc(NC2=NC(c3ccccc3)=CC(c3cccc([N+](=O)[O-])c3)N2)nc(N2CCOCC2)n1 (configuration not stated)
[4]
  IC50: 0.0029 µM

## O=C(SC1=NC(c2ccc(Cl)cc2)=CC(c2ccc([N+](=O)[O-])cc2)N1)c1ccccc1CN1C(=O)c2ccccc2C1=O (configuration not stated)
[5]
  IC50: 0.00051 µM

## C[C@H]1O[C@H](O[C@H]2[C@H](O)[C@@H](O)[C@@H](O[C@H]3[C@H](O)[C@@H](O)C(O)O[C@@H]3CO)O[C@@H]2CO)[C@H](O)[C@@H](O)[C@@H]1N[C@H]1C=C(CO)[C@@H](O)[C@H](O)[C@H]1O (some centres not stated) [ACARBOSE]
[6]
  IC50: 7.2 µM
[7]
  IC50: 9.32 µM
